Test results: PubChem BioAssay AID256 (DTP/NCI, 2004)
Inconclusive results and toxic doses are left out. The calls were made as follows: active = survival T/C of 150% or more; inactive = T/C below 125% in these data.

Test system: CD2F1 mice, L1210 leukemia ip, survival T/C
Experiment: NCI In Vivo Anticancer Drug Screen. Data for tumor model L1210 Leukemia (intraperitoneal) in CD2F1 (CDF1) mice
Conditions: endpoint: mean survival time, higher = longer survival
Procedure, shortened: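 Implant tumor; dose compound or vehicle; measure endpoint in both groups; report treated divided by control.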

[1] = dose: 100.0 mg/kg/injection, schedule: Q04DX003 (ip), vehicle: saline with Tween-80
[2] = dose: 200.0 mg/kg/injection, schedule: Q04DX003 (ip), vehicle: saline with Tween-80
[3] = dose: 75.0 mg/kg/injection, schedule: Q01DX001 (ip), vehicle: saline
[4] = dose: 150.0 mg/kg/injection, schedule: Q01DX001 (ip), vehicle: saline
[5] = dose: 300.0 mg/kg/injection, schedule: Q01DX001 (ip), vehicle: saline
[6] = dose: 100.0 mg/kg/injection, schedule: Q01DX001 (ip), vehicle: saline with Tween-80
[7] = dose: 200.0 mg/kg/injection, schedule: Q01DX001 (ip), vehicle: saline with Tween-80
[8] = dose: 400.0 mg/kg/injection, schedule: Q01DX001 (ip), vehicle: saline with Tween-80
[9] = dose: 50.0 mg/kg/injection, schedule: Q01DX009 (ip), vehicle: saline
[10] = dose: 100.0 mg/kg/injection, schedule: Q01DX009 (ip), vehicle: saline with Tween-80
[11] = dose: 400.0 mg/kg/injection, schedule: Q01DX009 (ip), vehicle: saline with Tween-80
[12] = dose: 400.0 mg/kg/injection, schedule: Q04DX003 (ip), vehicle: saline with Tween-80

Measured: T/C

O=C(COc1ccc(Cl)c(Cl)c1)Nc1ccc[n+](Cc2cccc(Cl)c2S(=O)(=O)F)c1
inactive: [1] 97 % of control | [2] 105 % of control

CCNCc1ccc2c(c1)OCO2
inactive: [3] 101 % of control | [4] 101 % of control | [5] 103 % of control

COc1cc2ccncc2cc1O
inactive: dose: 25.0 mg/kg/injection, schedule: Q01DX009 (ip), vehicle: water 96 % of control | dose: 50.0 mg/kg/injection, schedule: Q01DX009 (ip), vehicle: water 96 % of control

O=[N+]([O-])c1ccc(/C=C2/c3ccccc3-c3nc4ccccc4cc32)cc1
inactive: [6] 93 % of control | [7] 87 % of control | [8] 93 % of control

O=C(c1ccccc1)C(Cl)Cl
inactive: [9] 95 % of control | [10] 108 % of control | dose: 100.0 mg/kg/injection, schedule: Q01DX009 (ip), vehicle: saline 95 % of control | dose: 200.0 mg/kg/injection, schedule: Q01DX009 (ip), vehicle: saline 106 % of control | [11] 86 % of control

CC([NH-])C(=O)O.CC([NH-])C(=O)O.CC([NH-])C(=O)O.[Co+3] (configuration not stated)
inactive: dose: 6.25 mg/kg/injection, schedule: Q01DX009 (ip), vehicle: saline 98 % of control | dose: 12.5 mg/kg/injection, schedule: Q01DX009 (ip), vehicle: saline 112 % of control | dose: 25.0 mg/kg/injection, schedule: Q01DX009 (ip), vehicle: saline 107 % of control | [9] 124 % of control

CCOC(=O)C(OCC)C1=Cc2ccccc2CC1 (configuration not stated)
inactive: dose: 12.5 mg/kg/injection, schedule: Q01DX005 (ip), vehicle: Klucel (hydroxypropylcellulose) (HPC) 97 % of control | dose: 25.0 mg/kg/injection, schedule: Q01DX005 (ip), vehicle: Klucel (hydroxypropylcellulose) (HPC) 97 % of control | dose: 50.0 mg/kg/injection, schedule: Q01DX005 (ip), vehicle: Klucel (hydroxypropylcellulose) (HPC) 98 % of control | dose: 100.0 mg/kg/injection, schedule: Q01DX005 (ip), vehicle: Klucel (hydroxypropylcellulose) (HPC) 93 % of control | dose: 200.0 mg/kg/injection, schedule: Q01DX005 (ip), vehicle: Klucel (hydroxypropylcellulose) (HPC) 89 % of control | dose: 400.0 mg/kg/injection, schedule: Q01DX005 (ip), vehicle: Klucel (hydroxypropylcellulose) (HPC) 98 % of control

OC(c1ccccc1)c1ccc2c(c1)CCC2 (configuration not stated)
inactive: [1] 102 % of control | [2] 98 % of control | [12] 94 % of control

C=CCc1cccc(OC)c1OCCN(CC)CC
inactive: dose: 5.0 mg/kg/injection, schedule: Q01DX009 (ip), vehicle: saline with Tween-80 102 % of control | dose: 5.0 mg/kg/injection, schedule: Q04DX003 (ip), vehicle: saline with Tween-80 94 % of control | dose: 10.0 mg/kg/injection, schedule: Q01DX009 (ip), vehicle: saline with Tween-80 96 % of control | dose: 10.0 mg/kg/injection, schedule: Q04DX003 (ip), vehicle: saline with Tween-80 96 % of control | dose: 20.0 mg/kg/injection, schedule: Q01DX009 (ip), vehicle: saline with Tween-80 91 % of control | dose: 20.0 mg/kg/injection, schedule: Q04DX003 (ip), vehicle: saline with Tween-80 96 % of control

CCCCCCCCCCC(C(=O)OCC)P(=O)(OCC)OCC (configuration not stated)
inactive: [3] 98 % of control | [4] 102 % of control | [5] 96 % of control

C=Cn1cnc2c(N)ncnc21 (tested in a mixture with another compound)
inactive: dose: 12.5 mg/kg/injection, schedule: Q01DX005 (ip), vehicle: water 101 % of control | dose: 25.0 mg/kg/injection, schedule: Q01DX005 (ip), vehicle: water 104 % of control | dose: 50.0 mg/kg/injection, schedule: Q01DX005 (ip), vehicle: water 101 % of control | dose: 100.0 mg/kg/injection, schedule: Q01DX005 (ip), vehicle: water 101 % of control | dose: 200.0 mg/kg/injection, schedule: Q01DX005 (ip), vehicle: water 104 % of control

Cc1nc(N)[nH]c(=O)c1CCCNCc1ccncc1
inactive: [6] 87 % of control | [7] 91 % of control | [8] 90 % of control

C[N+](C)(C)CC(=O)N/N=C\c1c(O)ccc2ccccc12
inactive: [1] 97 % of control

CC(NC(=O)OCc1ccccc1)C(=O)NCCC(=O)OCc1ccccc1 (configuration not stated)
inactive: [10] 93 % of control | dose: 200.0 mg/kg/injection, schedule: Q01DX009 (ip), vehicle: saline with Tween-80 95 % of control | [11] 90 % of control

O=S1(=O)C2CCCCCC2(N2CCOCC2)C1C1CCCCC1 (configuration not stated)
inactive: [1] 95 % of control | [2] 95 % of control | [12] 97 % of control
